Test results from patent publication US4572911A, “Hexahydroindolinzine compounds, pharmaceutical compositions and methods and intermediates” (priority 1984, dated 1986).
Where a name gives a salt, the structure may show the parent alone. Read-outs that look alike come from different tables or passages of the source.

Columns and labels:
gastric acid secretion = assay: Acute Gastric Fistula Rat Test (inhibition of gastric acid secretion, Total Acid Output); format: in vivo, Female Sprague-Dawley rats; conditions: 1 h, @ 20 mg/kg i.d. (intraduodenal), collection at one hour, read-out: % Inhibition of TAO (Total Acid Output)
Method: The compounds of the invention are useful for inhibition of gastric acid secretion as measured by the following test. Female Sprague-Dawley rats are fasted twenty-four hours before testing and are given water ad libidum while being kept in individual cages. On the day of testing, the rats are weighed and are selected so that the rats in each test weigh within a range of ±20 grams.
Surgery is carried out under light ether anesthesia. As soon as the rat is anesthetized its teeth are removed and a mid-line incision is made on the abdomen about 11/2 inches in length and the stomach and duodenum are exposed. If at this point the stomach is filled with food or fecal material, the rat is not used. If the condition of the stomach is acceptable, a purse string stitch is placed on the fundic portion of the stomach with a suture, taking care not to pierce any blood vessels in the area. A small nick is then made into the stomach in the center of the purse string, and a cannula, consisting of a small vinyl tube with a flange on one end, is put into the stomach, and the purse string stitch is closed tightly around the flange. The test compound is administered intraduodonally (i.d.) immediately after surgery in a volume of 0.5 ml/100 grams rat. Control rats receive the test vehicle, 0.5% aqueous methyl cellulose.
After the surgery and after administration of the test compound, the abdominal wall and skin are closed simultaneously with three or four 10 mm wound clips and a collecting tube is placed on the cannula. Each rat is then placed in a box in which a longitudinal slit has been made to allow the cannula to hang freely and to allow the rat to move about unencumbered. After the rat has been allowed to stabilize for thirty minutes, the collection tube on the cannula is discarded and replaced with a clean tube to receive the gastric juice. Collections are made at one hour.
The sample of gastric contents collected is drained into a centrifuge tube and centrifuged to pack down the sediment. The volume is read and a 1 ml aliquot of the supernatant is put into a beaker containing 10 ml distilled water and is titrated to pH 7 using 0.01 N sodium hydroxide. Results are determined for Volume, Titratable Acid and Total Acid Output, where Volume equals total ml of gastric juice minus sediment; Titratable Acid (meq/1) equals amount of 0.01 N sodium hydroxide needed to titrate the acid to pH 7; and Total Acid Output equals Titratable Acid times Volume. Results are reported as % inhibition of Total Acid Output (TAO) for a dose of 20 mg/kg i.d. of the compound of formula (I) or (II). Particularly useful are compounds having significant inhibition of TAO at a dose of 20 mg/kg.

[1] = test system: depressant effects of tetrabenazine (TBZ); assay: tetrabenazine (TBZ) antagonism assay for antidepressant agents; format: in vivo; conditions: Mus musculus, ip, 0.5 h, mice, test compound i.p. 30 minutes prior to 32 mg/kg i.p. TBZ
Method: This is the "classical" tetrabenazine antagonism assay described in U.S. Pat. No. 3,787,577. Mice are injected with a test compound 30 minutes prior to the injection of 32 mg/kg i.p. of TBZ, a drug which decreases normal exploratory activity and induces ptosis. After 30 minutes, the mice are tested for two parameters: the presence of normal exploratory activity (EA) and reversal of ptosis (Pt). A control group of mice is given only 32 mg/kg i.p. of TBZ.

[2] = normal exploratory activity, read-out: TBZ ED50 EA (exploratory activity)
[3] = reversal of ptosis, read-out: TBZ ED50 Pt (reversal of ptosis)

Question: `Cn1ccc2c1[C@H](c1ccccc1)CN1CCC[C@@H]21` (relative stereo) [17 (1st), 4,5,7,8,9,9a-alpha-Hexahydro-3-methyl-4-alpha-phenyl-3H-pyrrolo[2,3-g]indolizine] was tested. Which inhibition in vivo at 20 mg/kg (gastric acid secretion) did it give?
Answer: 90%

Question: Which inhibition in vivo at 20 mg/kg (gastric acid secretion) does the source give for `Cn1ccc2c1[C@H](c1ccccc1)CN1CCC[C@H]21` (relative stereo) [17 (2nd), 4,5,7,8,9,9a-beta-Hexahydro-3-methyl-4-alpha-phenyl-3H-pyrrolo[2,3-g]indolizine] here?
Answer: 88%

Question: What about the ED50 [1, 2] of the same compound?
Answer: 2.4 mg/kg

Question: What about the ED50 [1, 3] of the same compound?
Answer: ~0.75 mg/kg

Question: Which inhibition in vivo at 20 mg/kg (gastric acid secretion) does the source give for `c1ccc([C@@H]2CN3CCC[C@H]3c3ccsc32)cc1` (relative stereo) [19 (1st), 4,5,7,8,9,9a-alpha-Hexahydro-4-alpha-phenylthieno[2,3-g]indolizine] here?
Answer: 98%

Question: Which inhibition in vivo at 20 mg/kg (gastric acid secretion) does the source give for `c1ccc([C@@H]2CN3CCC[C@@H]3c3ccsc32)cc1` (relative stereo) [19 (2nd), 4,5,7,8,9,9a-beta-hexahydro-4-alpha-phenylthieno[2,3-g]indolizine] here?
Answer: 98%

Question: `c1ccc([C@@H]2CN3CCC[C@H]3c3sccc32)cc1` (relative stereo) [19 (3rd), 4,5,7,8,9,9a-alpha-hexahydro-4-alpha-phenylthieno[3,2-g]indolizine] was tested. Which inhibition in vivo at 20 mg/kg (gastric acid secretion) did it give?
Answer: 88%

Question: For `c1csc([C@@H]2CN3CCC[C@H]3c3ccsc32)c1` (relative stereo) [20 (1st), 4,5,7,8,9,9a-alpha-Hexahydro-4-alpha-(2-thienyl)thieno[2,3-g]indolizine], which inhibition in vivo at 20 mg/kg (gastric acid secretion) is on record?
Answer: 47%

Question: `c1csc([C@@H]2CN3CCC[C@@H]3c3ccsc32)c1` (relative stereo) [20 (2nd), 4,5,7,8,9,9a-beta-hexahydro-4-alpha-(2-thienyl)thieno[2,3-g]indolizine] was tested. Which inhibition in vivo at 20 mg/kg (gastric acid secretion) did it give?
Answer: 41%

Question: And the ED50 [1, 2]?
Answer: ~24 mg/kg

Question: What about the ED50 [1, 3] of the same compound?
Answer: ~30 mg/kg

Question: `C[C@@]12CCCN1C[C@@H](c1ccccc1)c1sccc12` (relative stereo) [Example 18, 4,5,7,8,9,9a-Hexahydro-9a-alpha-methyl-4-alpha-phenylthieno-[2,3-g]indolizine perchlorate (1:1)] was tested. Which inhibition in vivo at 20 mg/kg (gastric acid secretion) did it give?
Answer: 100%

Question: Which inhibition in vivo at 20 mg/kg (gastric acid secretion) does the source give for `CC12CCCN1CCc1c2ccn1Cc1ccccc1Cl` (stereo not shown) [Example 4, 3-(2-Chlorobenzyl)-4,5,7,8,9,9a-hexahydro-9a-methyl-3H-pyrrolo[2,3-g]indolizine] here?
Answer: 78%

Question: Which inhibition in vivo at 20 mg/kg (gastric acid secretion) does the source give for `CC12CCCN1CCc1[nH]ccc12` (stereo not shown) [Example 5, 4,5,7,8,9,9a-Hexahydro-9a-methyl-3H-pyrrolo[2,3-g]-indolizine E-(2-)butenedioate(1:1)] here?
Answer: 66%

Question: For `Cn1ccc2c1CCN1CCCC21c1ccccc1` (stereo not shown) [Example 7, 4,5,7,8,9,9a-Hexahydro-3-methyl-9a-phenyl-3H-pyrrolo[2,3-g]indolizine], which inhibition in vivo at 20 mg/kg (gastric acid secretion) is on record?
Answer: 86%

Question: Which inhibition in vivo at 20 mg/kg (gastric acid secretion) does the source give for `CC12CCCN1CCc1c2ccn1-c1ccccc1` (stereo not shown) [Example 10, 4,5,7,8,9,9a-Hexahydro-9a-methyl-3-phenyl-3H-pyrrolo[2,3-g]indolizine] here?
Answer: 82%

Question: How did the inhibition in vivo at 20 mg/kg (gastric acid secretion) turn out when `Cn1ccc2c1CCN1C(c3ccc(Cl)cc3)CCC21C` (stereo not shown) [Example 12, 7-(4-Chlorophenyl)-4,5,7,8,9,9a-hexahydro-3,9a-dimethyl-3H-pyrrolo[2,3-g]indolizine (E)-2-butenedioate (1:7) hydrate (1:2)] was run?
Answer: 37%

Question: Which inhibition in vivo at 20 mg/kg (gastric acid secretion) does the source give for `Cn1ccc2c1CCN1CCCC21C` (stereo not shown) [Example 13, 3,9a-Dimethyl-4,5,7,8,9,9a-hexahydro-3H-pyrrolo[2,3-]indolizine hydrochloride] here?
Answer: 74%

Question: With `Cn1ccc2c1C1(C)CCCN1CC2` (stereo not shown) [Example 16, 1,9a-Dimethyl-4,5,7,8,9,9a-hexahydro-1H-pyrrolo[3,2-g]indolizine cyclohexanesulfamate] as the compound, how does the inhibition in vivo at 20 mg/kg (gastric acid secretion) read?
Answer: 86%
